Values joined by “and” are separate entries in the source; they are usually repeats but may differ in a detail not shown here. Equal entries are not always repeated. Where two headings read alike, the source gives them in different places.
Experiment: Pharmacokinetics in vivo after single oral or intravenous administration
Set-up: species or system rat
Conditions: rats, 10 mg/kg; for Vd: read-out: Vz
Procedure: The pharmacokinetics of ZB-16 in a dose of 10 mg/kg after single oral or intravenous administration was studied in 6 male Wistar rats weighing 250–280 g. The blood from the tail vein (200 μL) was collected before and at 0, 0.25, 0.5, 1, 2, 4, 8, 12, and 24 h after ZB-16 administration. The blood concentrations of the test compounds in animals were evaluated using HPLC-MS/MS. Basic pharmacokinetic parameters were calculated using a non-model method and WinNonlin Professional 6.0 (Pharsight Corporation, Mountain View, CA, USA) based on the experimental concentration-time data obtained on each animal.

[1] = male, Wistar, rat, plasma, iv, i.v. injection, Mean ± SD (n = 3)
[2] = male, Wistar, rat, plasma, iv, i.v. injection, individual rat
[3] = male, Wistar, rat, plasma, po, oral administration, Mean ± SD (n = 3)
[4] = male, Wistar, rat, plasma, po, oral administration, individual rat
[5] = oral administration, individual rat

## O=S1(=O)COc2cc(-c3ccc(OCC4CCN(c5ncc(Cl)cn5)CC4)c(F)c3)ccc21 [ZB-16]
male, Wistar, plasma, iv, i.v. injection, individual rat, read-out: AUC 0-t
  AUC(0-t): 244 ng·h/mL
male, Wistar, plasma, oral administration, individual rat
  Tmax: 4 h
male, Wistar, rat, plasma, read-out: half-life
  half-life: > 12 h
male, Wistar, rat, plasma, oral vs i.v., read-out: absolute bioavailability
  bioavailability: 8%
[1]
  AUC(0-inf): 339 ± 97.2 ng·h/mL
  clearance: 100 mL/min/kg
  k el: 1.39e-05 s⁻¹
  Vd: 123 ± 18.1 L/kg
male, Wistar, rat, plasma, iv, i.v. injection, Mean ± SD (n = 3), read-out: AUC 0-t
  AUC(0-t): 218 ± 30.4 ng·h/mL
male, Wistar, rat, plasma, iv, i.v. injection, Mean ± SD (n = 3), read-out: C0
  C0: 32 ± 8.7 ng/mL
male, Wistar, rat, plasma, iv, i.v. injection, Mean ± SD (n = 3), read-out: MRT last
  MRT last: 9 ± 1 h
male, Wistar, rat, plasma, iv, i.v. injection, Mean ± SD (n = 3), read-out: t1/2 (converted)
  half-life: 15 ± 5.8 h
[2]
  AUC(0-inf): 441 ng·h/mL
  clearance: 83.3 mL/min/kg
  k el: 8.33e-06 s⁻¹
  Vd: 139 L/kg
male, Wistar, rat, plasma, iv, i.v. injection, individual rat, read-out: AUC 0-t
  AUC(0-t): 226 ng·h/mL
male, Wistar, rat, plasma, iv, i.v. injection, individual rat, read-out: C0
  C0: 29 ng/mL
male, Wistar, rat, plasma, iv, i.v. injection, individual rat, read-out: MRT last
  MRT last: 10 h
male, Wistar, rat, plasma, iv, i.v. injection, individual rat, read-out: t1/2 (converted)
  half-life: 21 h
[3]
  AUC(0-inf): 119 ± 11.9 ng·h/mL
  k el: 1.67e-05 s⁻¹
male, Wistar, rat, plasma, po, oral administration, Mean ± SD (n = 3), read-out: AUC 0-t
  AUC(0-t): 85 ± 17.6 ng·h/mL
male, Wistar, rat, plasma, po, oral administration, Mean ± SD (n = 3), read-out: Cmax
  Cmax: 6 ± 1.2 ng/mL
male, Wistar, rat, plasma, po, oral administration, Mean ± SD (n = 3), read-out: MRT last
  MRT last: 9 ± 1 h
male, Wistar, rat, plasma, po, oral administration, Mean ± SD (n = 3), read-out: t1/2 (converted)
  half-life: 13 ± 5.2 h
[4]
  AUC(0-inf): 124 ng·h/mL
  k el: 1.11e-05 s⁻¹
male, Wistar, rat, plasma, po, oral administration, individual rat, read-out: AUC 0-t
  AUC(0-t): 69 ng·h/mL
male, Wistar, rat, plasma, po, oral administration, individual rat, read-out: Cmax
  Cmax: 4 ng/mL
male, Wistar, rat, plasma, po, oral administration, individual rat, read-out: MRT last
  MRT last: 10 h
male, Wistar, rat, plasma, po, oral administration, individual rat, read-out: t1/2 (converted)
  half-life: 19 h
i.v. injection, individual rat
  AUC 0−∞: 247 ng·h/mL and 329 ng·h/mL
  AUC(0-t): 184 ng·h/mL
  C0: 26 ng/mL and 42 ng/mL
  CL: 130 mL/min/kg
  Kel: 0.06 h⁻¹
  MRT last: 8 h
  Vz: 127 L/kg and 104 L/kg
  t1/2: 11 h and 12 h
[5]
  AUC 0−∞: 128 ng·h/mL and 105 ng·h/mL
  AUC(0-t): 104 ng·h/mL and 83 ng·h/mL
  Cmax: 7 ng/mL
  Kel: 0.07 h⁻¹
  t1/2: 10 H

Reference: article PMC6156125, “Chemistry and Hypoglycemic Activity of GPR119 Agonist ZB-16” (Frontiers in Endocrinology, 2018)
